The numbers were not newly measured in patent US20100099775A1, “METHOD FOR AMELIORATING OF POST-ANESTHETIC RECOVERY” (ALPHARX INC., priority 2008, published 2010), which cites them from elsewhere.

For data set [1], the system named is Friedreich's Ataxia patients. To be noted: oral 5 mg/kg daily for 8 weeks.
For data set [2], the system named is patients with cerebrovascular disease. The following applies: 90 mg daily; nine patients.
Data set [3] deals with cultured cortical neurons. To be noted: also when applied 30 min after the NMDA pulse.
The subject of data set [4] is patients. The following applies: 5 mg/kg daily for 4-9 months; three patients.

`COC1=C(OC)C(=O)C(CCCCCCCCCCO)=C(C)C1=O` [Idebenone, 2,3-dimethoxy-5-methyl-6-(10-hydroxydecyl)-1,4 benzoquinone]: the “marker of oxidative DNA damage” value in data set [1] is on record as “significantly decreased”. Also, the “EEG and clinical symptoms” value in data set [2] is given as “improvements”. Also, for the setting “fixed oils (soy, corn, almond, etc.)”, the “Solubility in fixed oils” value is on record as “low”. The water solubility result (water) is given as “Low”. The “protection of cortical neurons against necrotic degeneration” value in data set [3] is “rescued cortical neurons”. For the same compound, the left ventricular enlargement entry in data set [4] was “reduction”.
